Reference: patent US20220162240A1, “MITOCHONDRIA-TARGETED ISOKETAL/ISOLEVUGLANDIN SCAVENGERS” (Vanderbilt University, priority 2019, published 2022)
“Also recorded” adds a separate entry of the source.

Legend:
[1] = test system: intact mouse kidney mitochondria; experiment: Swelling and respiration of isolated mouse kidney mitochondria after acute isoLG or isoLG-PE exposure; conditions: for mPTP opening / mitochondrial swelling / inhibition of mitochondrial respiration: 1 μM; for inhibition of mitochondrial respiration: acute treatment of isolated mitochondria, 5 min, glutamate and malate, ADP 50 μM
Description: Intact mouse kidney mitochondria with glutamate and malate were incubated (5 min) with ethanol as vehicle, isoLG (1 μM) or isoLG-PE (1 μM) prior to addition of ADP (50 μM) and measurements of oxygen consumption. *P<0.001 vs Control, **P<0.03 vs isoLG.
Reactive isoLG produce protein-Lysine adducts and cytotoxic isoLG-phosphatidylethanolamine adduct (isoLG-PE) which can independently contribute to mitochondrial dysfunction. Indeed, acute treatment of isolated mitochondria with isoLG-PE inhibited respiration by 41% while similar dose of isoLG reduced respiration by 74% which support potential role of both isoLG-PE and isoLG protein-Lysine adducts in mitochondrial dysfunction.

[2] = test system: human aortic endothelial cells (HAEC); experiment: Mitochondrial superoxide in HAEC incubated with Ang II plus TNFα (MitoSOX/HPLC); assay type: cell-based
Description: (§1) Free radical oxidation of arachidonic acid produces highly reactive isolevuglandins (isoLG) which causes mitochondrial dysfunction by opening of the mitochondrial permeability transition pore (mPTP). […] The functional role of mitochondrial isoLG was tested in vivo using angiotensin II model of hypertension. C57Bl/6J mice were infused with angiotensin II (0.7 mg/kg/day) or saline (Sham) and received mito2HOBA in the drinking water (0.1 g/L). […] Decrease of NO is a hallmark of endothelial dysfunction in hypertension due to vascular oxidative stress.
(§2) Mitochondrial O2^• and cardiolipin oxidation (specific marker of mitochondrial dysfunction and oxidative stress) in cultured human aortic endothelial cells (HAEC) were incubated with Ang II and TNFα.

[3] = test system: human aortic endothelial cells (HAEC); experiment: Cardiolipin oxidation in HAEC incubated with Ang II plus TNFα (LC/MS); assay type: cell-based; conditions: 50 nM, Ang II + TNFα 24 hours
Description: as §1, §2

hypertension = conditions: background statement; cited from earlier work
[4] = test system: Ang II-infused C57Bl/6J mice; experiment: Blood pressure (tail-cuff) in Ang II-induced hypertension, CypD blocker given after onset; assay type: in vivo; conditions: i.p. 10 mg/kg/day after onset of Ang II-induced hypertension
Description: (§3) FIG. 3A-3D is a set of graphs showing examples of targeting CypD in hypertension. Blood pressure in C57Bl/6J mice infused with saline (Sham), Ang II (0.7 mg/kg/day) or treated with CypD blocker Sanglifehrin A (SFA) after onset of Ang II-induced hypertension (Ang II+SFA). Blood pressure was measured by tail-cuff method (A). ^3Following 14 days of saline or Ang II infusion, mice were sacrificed for isolation of aorta to study mitochondrial […] using MitoSOX and HPLC or to study vasodilation. Results are mean±SEM (n=6-8). *P<0.01 vs Sham, **P<0.01 vs Ang II, ***P<0.01 vs Ang II+SFA (n=8).
(§4) One aspect of the present invention is targeting CypD after onset of hypertension. The present inventors implanted wild-type mice with osmotic pump containing Ang II (0.7 mg/kg/day) and started treatment with Sanglifehrin A after onset of Ang II-induced hypertension (FIG. 3A).

mitochondrial superoxide = experiment: Aortic mitochondrial superoxide (MitoSOX/HPLC) in Ang II-infused mice treated with CypD blocker; assay type: in vivo; conditions: i.p. 10 mg/kg/day after onset of Ang II-induced hypertension
Description: as §3, §4

aorta = experiment: Vasodilatation of aorta from Ang II-infused mice treated with CypD blocker; assay type: in vivo; conditions: i.p. 10 mg/kg/day after onset of Ang II-induced hypertension
Description: as §3, §4

[5] = acute exposure of isolated mitochondria

isolevuglandins [isoLG]
mitochondrial respiration [1, 5]: inhibits mitochondrial respiration
mPTP opening / mitochondrial swelling [1, 5]: induces CypD-dependent mPTP opening; also recorded: mitochondrial swelling
inhibition of mitochondrial respiration [1]: 74%

NCc1ccccc1O [2HOBA, 2-hydroxybenzylamine, reference compound]
mitochondrial superoxide production / mitochondrial oxidative stress ([2]; 50 nM, Ang II + TNFα 24 hours, MitoSOX/HPLC): not effective
concentration required for protection similar to mito2HOBA (50 nM) against mitochondrial oxidative stress ([2]; Ang II + TNFα): much higher concentrations
cardiolipin oxidation [3]: not effective
endothelium-dependent relaxation in animal studies (hypertension): protects endothelium-dependent relaxation
hypertension in animal studies (hypertension): attenuates hypertension
inflammation in animal studies (hypertension): prevents inflammation

CC[C@H]1C[C@H](C)[C@@]2(NC1=O)O[C@@H](C[C@H](O)[C@@H](C)CC/C=C/C=C(\C)[C@@H]1C/C=C/C=C/[C@H](O)[C@H](C)[C@@H](O)[C@@H](CCC(C)=O)C(=O)N[C@@H](C(C)C)C(=O)N[C@@H](Cc3cccc(O)c3)C(=O)N3CCC[C@H](N3)C(=O)O1)[C@H](C)[C@H](O)[C@@H]2C [Sanglifehrin A]
blood pressure [4]: reduces blood pressure
mitochondrial superoxide production in aorta (mitochondrial superoxide): normalizes
vasodilatation (aorta): improves vasodilatation

isoLG-phosphatidylethanolamine adduct [isoLG-PE]
mPTP opening / mitochondrial swelling [1, 5]: mitochondrial swelling
inhibition of mitochondrial respiration [1]: 41%
